Assay results from ChEMBL document CHEMBL6103570, “An endoplasmic reticulum and lipid droplets dual-localized strategy to develop small molecular photosensitizers that induce ferroptosis during photodynamic therapy” (Eur J Med Chem, 2025).
Activity calls are given as the source filed them. The calls are words filed in the database; no cut-off is given here.

Legend:
[1] = Photosensitizing ability of the compound in EtOH assessed as singlet oxygen quantum yield at 100 nM under 520nm 30 mW/cm2 light irradiation by DPBF reagent based analysis; assay type: functional
[2] = Photosensitizing ability of the compound in NaOH assessed as fluorescence quantum yield; assay type: functional
[3] = Drug localization in endoplasmic reticulum of mouse 4T1 cells assessed as increase in green fluorescence at 2 uM incubated for 12 hrs by confocal scanning microscopy analysis; assay type: ADME, subcellular; conditions: 4t1, 12 h
[4] = Drug localization in Lipid droplet of mouse 4T1 cells assessed as increase in green fluorescence at 2 uM incubated for 12 hrs by confocal scanning microscopy analysis; assay type: ADME, subcellular; conditions: 4t1, 12 h
[5] = Drug localization in Lipid droplet of mouse 4T1 cells assessed as increase in green fluorescence by measuring pearson correlation coefficient at 2 uM incubated for 12 hrs by confocal scanning microscopy analysis; assay type: ADME, subcellular; conditions: 4t1, 12 h
[6] = Drug localization in mitochondria of mouse 4T1 cells assessed as increase in green fluorescence by measuring pearson correlation coefficient at 2 uM incubated for 12 hrs by confocal scanning microscopy analysis; assay type: ADME; conditions: 4t1, 12 h
[7] = tested on: 4T1; test: Induction of intracellular ROS generation in mouse 4T1 cells assessed as increase in green fluorescence intensity at 5 to 60 nM incubated in dark for 24 hrs followed by compound removal and measured after 5 mins under 20 mW/cm2H2 white light irradiation by H2-DCFDA staining based fluorescence assay; assay type: functional, cell-based; conditions: dose 5-60 nM
[8] = tested on: 4T1; test: Induction of intracellular ROS generation in mouse 4T1 cells assessed as increase in green fluorescence intensity at 5 to 60 nM incubated in dark for 24 hrs followed by compound removal and measured after 5 mins under 20 mW/cm2H2 white light irradiation in presence of NaN3 by H2-DCFDA staining based fluorescence assay; assay type: functional, cell-based; conditions: dose 5-60 nM
[9] = Phototoxicity in human MDA-MB-231 cells assessed as cell viability preincubated for 24 hrs followed by white light irradiation at 20 mW/cm2 for 10 mins and measured after 24 hrs by MTT assay; assay type: functional, cell-based; conditions: MDA-MB-231, light or radiation study
[10] = Phototoxicity in mouse 4T1 cells assessed as cell viability preincubated for 24 hrs followed by white light irradiation at 20 mW/cm2 for 10 mins and measured after 24 hrs by MTT assay; assay type: functional, cell-based; conditions: 4T1, light or radiation study
[11] = Phototoxicity in human MCF7 cells assessed as cell viability preincubated for 24 hrs followed by white light irradiation at 20 mW/cm2 for 10 mins and measured after 24 hrs by MTT assay; assay type: functional, cell-based; conditions: MCF7, light or radiation study
[12] = Phototoxicity in human Bcap37 cells assessed as cell viability preincubated for 24 hrs followed by white light irradiation at 20 mW/cm2 for 10 mins and measured after 24 hrs by MTT assay; assay type: functional, cell-based; conditions: Bcap37, light or radiation study
[13] = Darktoxicity in human MDA-MB-231 cells assessed as cell viability preincubated for 24 hrs followed by incubation under dark condition for 24 hrs by MTT assay; assay type: toxicity, cell-based; conditions: time 48 hrs
[14] = Darktoxicity in mouse 4T1 cells assessed as cell viability preincubated for 24 hrs followed by incubation under dark condition for 24 hrs by MTT assay; assay type: toxicity, cell-based; conditions: time 48 hrs
[15] = Darktoxicity in human Bcap37 cells assessed as cell viability preincubated for 24 hrs followed by incubation under dark condition for 24 hrs by MTT assay; assay type: toxicity, cell-based; conditions: time 48 hrs
[16] = Photo selectivity index, ratio of CC50 for darktoxicity in mouse 4T1 cells assessed as cell viability preincubated for 24 hrs followed by incubation under dark condition for 24 hrs by MTT assay to IC50 for phototoxicity in mouse 4T1 cells assessed as cell viability preincubated for 24 hrs followed by white light irradiation at 20 mW/cm2 for 10 mins and measured after 24 hrs by MTT assay; assay type: toxicity, cell-based; conditions: read-out: Ratio CC50/IC50
[17] = Photo selectivity index, ratio of CC50 for darktoxicity in human MCF7 cells assessed as cell viability preincubated for 24 hrs followed by incubation under dark condition for 24 hrs by MTT assay to IC50 for phototoxicity in human MCF7 cells assessed as cell viability preincubated for 24 hrs followed by white light irradiation at 20 mW/cm2 for 10 mins and measured after 24 hrs by MTT assay; assay type: toxicity, cell-based; conditions: read-out: Ratio CC50/IC50
[18] = Photo selectivity index, ratio of CC50 for darktoxicity in human Bcap37 cells assessed as cell viability preincubated for 24 hrs followed by incubation under dark condition for 24 hrs by MTT assay to IC50 for phototoxicity in human Bcap37 cells assessed as cell viability preincubated for 24 hrs followed by white light irradiation at 20 mW/cm2 for 10 mins and measured after 24 hrs by MTT assay; assay type: toxicity, cell-based; conditions: read-out: Ratio CC50/IC50
[19] = tested on: 4T1; test: Antitumor activity against mouse 4T1 cells implanted in mouse model assessed as reduction in tumor growth at 3 mg/kg, IG measured every two days for 15 days by digital caliper method; assay type: functional, organism-based; conditions: time 15.0 day
[20] = tested on: 4T1; test: Induction of ferroptosis in mouse 4T1 cells assessed as cell viability at 20 nM preincubated for 24 hrs followed by white light irradiation at 20 mW/cm2 and measured after 24 hrs in presence of Z-VAD-FMK by MTT assay; assay type: functional, cell-based; conditions: time 48.0 hrs
[21] = tested on: 4T1; test: Induction of ferroptosis in mouse 4T1 cells assessed as cell viability at 20 nM preincubated for 24 hrs followed by white light irradiation at 20 mW/cm2 and measured after 24 hrs in presence of 3-MA by MTT assay; assay type: functional, cell-based; conditions: time 48.0 hrs
[22] = tested on: 4T1; test: Induction of ferroptosis in mouse 4T1 cells assessed as cell viability at 20 nM preincubated for 24 hrs followed by white light irradiation at 20 mW/cm2 and measured after 24 hrs in presence of Fer-1 by MTT assay; assay type: functional, cell-based; conditions: time 48.0 hrs
[23] = tested on: 4T1; test: Induction of ferroptosis in mouse 4T1 cells assessed as decrease in intracellular GSH level at 10 nM preincubated in dark condition for 24 hrs followed by 20mW/cm2 white light irradiation for 10 mins and measured after 12 hrs by colorimetric assay; assay type: functional, cell-based; conditions: time 2170.0 min
[24] = tested on: 4T1; test: Antitumor activity against mouse 4T1 cells implanted in mouse model assessed as tumor growth inhibition at 3 mg/kg, IG measured every two days for 15 days under 80 mW/cm2 for 15 mins by digital caliper method relative to control; assay type: functional; conditions: 4T1, po, 360 h, time 15 day, read-out: TGI
[25] = Toxicity in mouse assessed as effect on liver in at 3 mg/kg, IG measured after 15 days by H and E staining based analysis; assay type: organism-based; conditions: in vivo, po, 360 h, time 15 day
[26] = tested on: 4T1; test: Antitumor activity against mouse 4T1 cells implanted in mouse model assessed as reduction in tumor weight at 3 mg/kg, IG measured every two days for 15 days under 80 mW/cm2 for 15 mins by digital caliper method; assay type: functional, organism-based; conditions: time 15.0 day
[27] = Toxicity in mouse assessed as effect on heart in at 3 mg/kg, IG measured after 15 days by H and E staining based analysis; assay type: organism-based; conditions: in vivo, po, 360 h, time 15 day
[28] = Toxicity in mouse assessed as effect on spleen in at 3 mg/kg, IG measured after 15 days by H and E staining based analysis; assay type: organism-based; conditions: in vivo, po, 360 h, time 15 day
[29] = tested on: 4T1; test: Antitumor activity against mouse 4T1 cells implanted in mouse model assessed as reduction in tumor cells at 3 mg/kg, IG measured every two days for 15 days under 80 mW/cm2 for 15 mins by digital caliper method; assay type: functional, organism-based; conditions: time 15.0 day
[30] = tested on: 4T1; test: Antitumor activity against mouse 4T1 cells implanted in mouse model assessed as infiltration of immune cells at 3 mg/kg, IG measured every two days for 15 days under 80 mW/cm2 for 15 mins by digital caliper method; assay type: functional, organism-based; conditions: time 15.0 day

COC(=O)c1cc2c3ccccc3n(C)c2c(C2=C3C(C)=C(I)C(C)=[N+]3[B-](F)(F)n3c(C)c(I)c(C)c32)n1
Activity [1]: 0.78 | Activity [2]: 0.22 | Drug uptake [3]: Active | Drug uptake [4]: Active | Activity [5]: 0.93 | Activity [6]: 0.49 | Activity [7]: Active | Activity [8]: inactive | IC50 [9]: 10 nM | IC50 [10]: 19 nM | IC50 [11]: 13 nM | IC50 [12]: 11 nM | CC50 at 24 h [13]: > 100000 nM | CC50 at 24 h [14]: > 100000 nM | CC50 at 24 h [15]: > 100000 nM | selectivity ratio [16]: > 5290 | selectivity ratio [17]: > 7750 | selectivity ratio [18]: > 8830 | Activity [19]: inactive | Activity [20]: inactive | Activity [21]: inactive | Activity [22]: Active | Activity [23]: Active | inhibition in vivo at 3 mg/kg [24]: 67.6% | Activity [25]: Non-toxic | Activity [26]: Active | Activity [27]: Non-toxic | Activity [28]: Non-toxic | Activity [29]: Active | Activity [30]: Active
